From patent EP0049203A1, “Benzoxazolinones substituted in the 6-position by an amino-alcohol or amino-ketone chain, their preparation and their therapeutic use” (RIOM LABORATOIRES- C.E.R.M. (Société Anonyme), priority 1980, dated 1982)

What was measured:
[1] = molecular target: T1, récepteurs β1 de l'oreillette gauche de cobaye (Cavia porcellus, UniProt H0W3H1); assay: Antagonism of the positive inotropic effect of isoprenaline on electrically stimulated isolated left atrium; details: β1, guinea-pig left atrium; for Kb: antagonism of isoprenaline, read-out: pA2 (converted)
T1 construct: l'oreillette gauche de cobaye stimulée électriquement; from tissue; host or cells: guinea pig left atrium, electrically stimulated
T1 sequence (H0W3H1 1-470): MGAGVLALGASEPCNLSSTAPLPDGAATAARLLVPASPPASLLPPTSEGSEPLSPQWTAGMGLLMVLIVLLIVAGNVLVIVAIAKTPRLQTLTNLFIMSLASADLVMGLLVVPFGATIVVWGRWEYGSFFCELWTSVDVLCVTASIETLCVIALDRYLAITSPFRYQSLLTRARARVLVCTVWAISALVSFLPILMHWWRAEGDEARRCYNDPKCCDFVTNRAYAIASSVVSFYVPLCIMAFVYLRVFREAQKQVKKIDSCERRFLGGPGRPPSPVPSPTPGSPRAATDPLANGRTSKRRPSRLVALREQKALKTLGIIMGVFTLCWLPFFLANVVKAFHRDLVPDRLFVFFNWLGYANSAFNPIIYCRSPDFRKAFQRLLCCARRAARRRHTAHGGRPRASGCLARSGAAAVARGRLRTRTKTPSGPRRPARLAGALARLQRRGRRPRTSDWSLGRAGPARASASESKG
Source text: (§1) L'activité pharmacologique des composés de l'invention a été révélée par recherche d'une interférence avec les récepteurs adrénergiques β1, β2 et α in vitro, conformément aux protocoles expérimentaux ci-après.
(§2) Récepteurs adrénergiques β1 : on recherche l'antagonisme de l'effet inotrope positif de l'isoprénaline sur les récepteurs β1 de l'oreillette gauche de cobaye stimulée électriquement.
(§3) Les résultats sont exprimés dans le tableau I par les paramètres usuels de pharmacologie moléculaire, selon les critères utilisés par Van Rossum [Arch. Int.

[2] = molecular target: T2, récepteurs adrénergiques β2 du muscle trachéal de cobaye (Cavia porcellus, UniProt Q8K4Z4); assay: Antagonism of the bronchodilator effects of isoprenaline on isolated tracheal muscle; details: guinea-pig tracheal muscle; for INTERFERENCE AVEC LES RECEPTEURS ADRENERGIQUES β2: result in words; for Kb: β2, antagonism of isoprenaline, read-out: pA2 (converted)
T2 construct: du muscle trachéal de cobaye; from tissue; host or cells: guinea pig tracheal muscle
T2 sequence (Q8K4Z4 whole entry): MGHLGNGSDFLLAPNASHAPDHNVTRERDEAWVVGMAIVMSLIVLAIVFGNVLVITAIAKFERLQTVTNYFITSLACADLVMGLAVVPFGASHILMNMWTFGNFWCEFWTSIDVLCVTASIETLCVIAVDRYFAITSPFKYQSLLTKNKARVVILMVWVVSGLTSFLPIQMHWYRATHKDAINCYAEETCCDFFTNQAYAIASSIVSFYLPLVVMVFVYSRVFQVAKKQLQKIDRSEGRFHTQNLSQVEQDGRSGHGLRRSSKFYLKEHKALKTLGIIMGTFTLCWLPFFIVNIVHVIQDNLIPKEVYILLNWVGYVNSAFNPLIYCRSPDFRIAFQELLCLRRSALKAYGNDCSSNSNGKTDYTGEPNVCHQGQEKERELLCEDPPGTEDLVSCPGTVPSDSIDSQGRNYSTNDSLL
Source text: as §1
Récepteurs adrénergiques β2 : on recherche l'antagonisme des effets bronchodilatateurs de l'isoprénaline sur les récepteurs p2 du muscle trachéal de cobaye.
as §3

[3] = tested on: Récepteurs adrénergiques α; assay: Interference with noradrenaline-induced contraction (cumulative doses) of isolated vas deferens; details: rat vas deferens; for pA2: noradrenaline contraction; for INTERFERENCE AVEC LES RECEPTEURS ADRENERGIQUES α: result in words
Source text: as §1
Récepteurs adrénergiques α : on étudie l'interférence des composés de l'invention sur la contraction du vas déferens isolé du rat, provoquée par des doses cumulatives de noradrénaline.
as §3

[4] = tested on: récepteurs β1 de l'oreillette gauche de cobaye; assay: Antagonism of the positive inotropic effect of isoprenaline on electrically stimulated isolated left atrium; details: for cardiosélectivité: β1 versus β2, in words
Source text: as §1, §2, §3

souris [5] = assay: Thermal stimulus analgesia test (Eddy and Leimbach); assay type: in vivo; details: Mus musculus, po; test de stimulus thermique; par voie orale chez la souris; read-out: DE 50 (dose qui augmente de 50 % le temps de réaction)
Protocol: Dans le test de stimulus thermique [selon EDDY N.B., LEIMBACH D.J. Pharmacol. Exp. Ther., 107, 385-393, (1953)J la DE 50 de ce composé ― qui représente la dose de produit qui augmente de 50 % le temps de réaction des animaux traités par rapport à celui du groupe des animaux de contrôle - est de 4,4 mg/kg par voie orale chez la souris.

souris [6] = assay: Chemical stimulus analgesia test (Siegmund; abdominal cramps); assay type: in vivo; details: Mus musculus, po; test de stimulus chimique; par voie orale chez la souris; read-out: DE 50 (dose qui inhibe de 50 % le nombre de crampes abdominales)
Protocol: Dans le test de stimulus chimique [SIEGMUND E., CADMUS R. GO LU - Proc. Soc. Exp. Biol. Med. 95, 729-731, (1957)] la DE 50 de ce composé - qui représente la dose qui inhibe de 50 % le nombre de crampes abdominales par rapport à celui du groupe des animaux de contrôle - est de 9 mg/kg par voie orale chez la souris.

Row | SMILES | Kb [1] [nM] | INTERFERENCE AVEC LES RECEPTEURS ADRENERGIQUES β2 [2] | pD'2 [1] | pA2 ([3]; α) | cardiosélectivité [4] | also measured
1 | COc1ccccc1N1CCN(CC(=O)c2ccc3c(c2)oc(=O)n3C)CC1 [compound 9, 2 [4-(2-méthoxyphényl)pipérazinyl] 1-(3-méthyl 2-benzoxazolinon-6-yl) éthanone] | 3980 | – | 3,8 | – | – | –
2 | CC(C)NCC(O)c1ccc2[nH]c(=O)oc2c1 (stereo not drawn) [compound 18, 2-isopropylamino 1-(2-benzoxazolinon-6-yl) éthanol] | 34.7 | – | – | pA2 = 6,03 ± 0,43 | de faible intensité | Kb [2]: 776 nM
3 | CC(C(=O)c1ccc2c(c1)oc(=O)n2C)N1CCN(c2ccc(F)cc2)CC1 (stereo not drawn) [compound 10] | 1260 | Agoniste partiel | 4,59 ± 0,61 | pA2 = 5,3 ± 0,12 | – | –
4 | O=c1[nH]c2ccc(C(O)CN3CCN(c4ccc(F)cc4)CC3)cc2o1 (stereo not drawn) [compound 30] | 3980 | Inactif | – | – | importante, voire totale | –
5 | NCC(O)c1ccc2[nH]c(=O)oc2c1 (stereo not drawn) [compound 16] | 6310 | Inactif | – | pA2 = 4,73 ± 0,52 | – | –
6 | Cn1c(=O)oc2cc(C(O)CN3CCN(c4cccc(C(F)(F)F)c4)CC3)ccc21 (stereo not drawn) [compound 31, 2-[4-(3-trifluorométhyl)phénylpipérazinyl] 1-(3-méthyl 2-benzoxazolinon-6-yl) éthanol] | – | – | – | – | – | activité sur les récepteurs adrénergiques ([4]; adrenergic receptors in general (β1, β2, α), in words): n'a pas une activité de même niveau que les autres composés de l'invention; ED50 (souris [5]): 4.4 mg/kg; ED50 (souris [6]): 9 mg/kg
7 | Cn1c(=O)oc2cc(C(O)CN3CCC(Cc4ccccc4)CC3)ccc21 (stereo not drawn) [compound 25, 2-(4-benzylpipéradinyl) 1-(3-méthyl 2-benzoxazolinon-6-yl) éthanol] | 2000 | Inactif | 4,2 | – | importante, voire totale | –
8 | Cn1c(=O)oc2cc(C(=O)CN3CCC(Cc4ccccc4)CC3)ccc21 [compound 13, 2-(4-benzyl-pipéridinyl) 1-(3-méthyl 2-benzoxazolinon-6-yl) éthanone] | 5010 | – | – | – | – | –
9 | CC(C)(C)NCC(O)c1ccc2[nH]c(=O)oc2c1 (stereo not drawn) [compound 19] | 224 | – | – | – | – | Kb [2]: 1480 nM; INTERFERENCE AVEC LES RECEPTEURS ADRENERGIQUES α [3]: Inactif

Continued, in another order:

Row | Kb [1] [nM] | INTERFERENCE AVEC LES RECEPTEURS ADRENERGIQUES β2 [2] | pD'2 [1] | SMILES | pA2 ([3]; α) | cardiosélectivité [4] | also measured
10 | 2820 | Agoniste partiel | – | COc1ccccc1N1CCN(CC(O)c2ccc3c(c2)oc(=O)n3C)CC1 (stereo not drawn) [compound 22] | pA2 = 5,7 ± 0,25 | – | –
11 | 6170 | Inactif | 4 | C[C@@H]([C@H](O)c1ccc2c(c1)oc(=O)n2C)N1CCN(c2ccc(F)cc2)CC1 (relative stereo) [compound 28] | – | importante, voire totale | INTERFERENCE AVEC LES RECEPTEURS ADRENERGIQUES α [3]: Inactif
12 | 2240 | – | – | COc1ccccc1N1CCN([C@@H](C)[C@H](O)c2ccc3c(c2)oc(=O)n3C)CC1 (relative stereo) [compound 27, Erythro 2-[4-(2-méthoxyphényl)pipéraziny] 1-(3-méthyl-2-benzoxazolinon-6-yl) propanol] | 6,14 ± 0,31 | – | Kb [2]: 20900 nM; pD'2 ([3]; α): 4,73 ± 0,38
13 | 2950 | Agoniste partiel | 4,50 ± 0,21 | C[C@@H]([C@H](O)c1ccc2c(c1)oc(=O)n2C)N1CCC(Cc2ccccc2)CC1 (relative stereo) [compound 29] | – | – | –
